The structures appear in SMILES notation.

For this assay, the system named is S. Typhimurium GFP reporter counter-screen, fluorescence, 4 h. Nature of the assay: nmpC-GFP reporter counter-screen in S. Typhimurium, dose response, counter-screen for PhoP regulon inhibitor project, Salmonella Typhimurium, GFP fluorescence (AID 2401).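 Further: S. typhimurium with Mg-insensitive nmpC-GFP reporter grown at 10 µM Mg2+; drop in reporter fluorescence reflects general culture growth inhibition.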 In general terms: Counterscreens check selectivity or assay interference.
Take `CN(C)c1ccc(/C=C/c2ccc3ccccc3[n+]2C)cc1`: the IC50 was 19.8 µM.

Regarding `O=[N+]([O-])c1cc(O)c2ncccc2c1`, the IC50 was 16.8 µM.

Consider `O=c1[nH]c2ccccc2n2c(=S)[nH]nc12`, for which the IC50 was 37.5 µM.

On to `Oc1c(I)cc(Cl)c2cccnc12`, for which the IC50 is 8.56 µM.

As for `COc1cccc(/C=N/Nc2ncc(C(F)(F)F)cc2Cl)c1O`, the IC50 is 126 µM.

For `Nc1nc2ccccc2n1CCOc1ccccc1Cl`, the IC50 was 71.8 µM.

In the case of `Cc1nc(N)nc(N)c1/C=C/C(C)(C)c1ccc(Cl)cc1`, the IC50 was 8.11 µM.

Consider `CC(=O)N1CCN(c2cc3c(cc2F)c(=O)c(C(=O)O)cn3C2CC2)CC1`, for which the IC50 was 36.5 µM.

Take `CCn1cc(C(=O)O)c(=O)c2cc(F)c(N3CCN(C(=S)NC(=O)c4c(OC)cccc4OC)CC3)cc21`: the IC50 was 54.2 µM.

`O=C(N/N=C/c1cccs1)c1cccs1`: the IC50 was 67.8 µM.

With `CCCCCCCOC(=O)C[N+](C)(C)CCOC1CC2CCC1(C)C2(C)C` (configuration not stated), the IC50 was 20.1 µM.

Turning to `CCN1/C(=C/C=C/C=C/c2sc3ccccc3[n+]2CC)Sc2ccccc21`, the IC50 is 17.8 µM.

In the case of `CCCCCCCCCCCCCCCC[N+](C)(C)CCN(Cc1ccc(OC)cc1)c1ncccn1`, the IC50 was 20.2 µM.

Turning to `C(=N\Nc1ccccn1)/c1cccnc1`, the IC50 was 21.5 µM.

For `COc1cc(/C=C/[N+](=O)[O-])ccc1O`, the IC50 was 32.6 µM.

In the case of `O=S1(=O)Nc2c(ccc3cccnc23)-c2ccccc21`, the IC50 was 2.73 µM.

On to `Cc1ccc(-c2csc(N=C(N)N)n2)cc1`, for which the IC50 was 109 µM.

On to `CCCNC(=O)c1cn(CC)c2cc(N3CCN(C)CC3)c(F)cc2c1=O`, for which the IC50 is 48.2 µM.

For `NC1CCN(c2nc3c(cc2F)c(=O)c(C(=O)O)cn3-c2ccc(F)cc2F)C1` (configuration not stated), the IC50 is 1.13 µM.

With `Cc1cccc(Nc2c3c(nc4ccccc24)CCC3)c1`, the IC50 was 109 µM.

For the compound `S=c1nc(C2CCCCC2)[nH][nH]1`, the IC50 was 99 µM.

With `OCCN1CCN(Cc2cc(Cl)c3cccnc3c2O)CC1`, the half-maximal inhibitory concentration (IC50) was 75.2 µM.

Take `CN(C)c1ccc(O)c2c1CC1CC3C(N(C)C)C(=O)C(C(N)=O)=C(O)[C@@]3(O)C(=O)C1=C2O` (some centres not stated): the IC50 was 3.97 µM.

Take `Cc1ccc(C(C[N+](=O)[O-])c2c(N)n(C)c(=O)n(C)c2=O)cc1` (configuration not stated): the IC50 is 15.1 µM.

In the case of `COC12C(COC(N)=O)C3=C(C(=O)C(C)=C(N)C3=O)N1CC1C2N1C` (configuration not stated), the IC50 was 77.2 µM.

For the compound `Nc1cccc2nc3ccccc3cc12`, the IC50 is 26.7 µM.

Turning to `Oc1ccc(/C=N/Nc2nccnc2Cl)c(O)c1`, the IC50 is 35 µM.

With `CC(=O)NC(c1cccs1)c1cc([N+](=O)[O-])c2cccnc2c1O` (configuration not stated), the IC50 is 30.8 µM.

`CC(C)NC1=C(Cl)C(=O)c2ccccc2C1=O`: the 50% inhibitory concentration (IC50) is 38.3 µM.

As to `C=CCNc1ncnc2c1[nH]c1ccccc12`, the IC50 was 118 µM.

For `O=C1c2ccccc2NC(c2ccc(-c3cccc(Cl)c3)o2)N1O` (configuration not stated), the half-inhibitory concentration (IC50) is 52.2 µM.

Turning to `CCCCN(CCCC)C(=O)c1cn(CC)c2cc(N3CCN(C)CC3)c(F)cc2c1=O`, the half-inhibitory concentration (IC50) was 21.9 µM.

Consider `O=S1(=O)CCC(NC(=S)SCCOc2ccccc2)C1` (configuration not stated), for which the IC50 was 64.8 µM.

For `CCCCOc1ccc(CSC(=N)N)cc1[N+](=O)[O-]`, the IC50 is 115 µM.

As to `CCCCCOc1ccc(CSC(=N)N)cc1[N+](=O)[O-]`, the IC50 was 46.8 µM.

`O=[N+]([O-])c1ccc(-c2ccn[nH]2)o1`: the IC50 is 39.8 µM.

Take `CN1CCN(C(c2ccc(C(F)(F)F)cc2)c2cc(Cl)c3cccnc3c2O)CC1` (configuration not stated): the IC50 is 21 µM.

As for `O=C(O)c1cc(O)c2c(c1)[C@@H]([C@H]1c3cc(C(=O)O)cc(O)c3C(=O)c3c(O[C@@H]4O[C@H](CO)[C@@H](O)[C@H](O)[C@H]4O)cccc31)c1cccc(OC3O[C@H](CO)[C@@H](O)[C@H](O)[C@H]3O)c1C2=O` (some centres not stated), the IC50 is 83.6 µM.

As for `C=CC#CC[N+]1(CC#Cc2ccccc2)CCOCC1`, the IC50 was 34.3 µM.

For the compound `NC1=NC[C@H](Cc2ccccc2)N1CCCCC1CCCCC1`, the IC50 is 45.9 µM.

Consider `N=C(N)SCc1cn(-c2ccccc2)nc1-c1ccc(Br)cc1`, for which the IC50 was 20.3 µM.

`Cc1ccc(Nc2cc(C)c3c(O)cccc3n2)cc1C`: the IC50 was 75.3 µM.

As to `Cc1cc(/C=N/n2c(COc3ccccc3)nc3ccccc3c2=O)c(O)c([N+](=O)[O-])c1`, the IC50 is 56.5 µM.

Take `CC(=O)Oc1ccc(C(=O)[C@H]2[C@H]3C(=O)N(c4ccc5ccccc5c4)C(=O)[C@H]3[C@@H]3C=CC=NN32)cc1`: the IC50 was 128 µM.

On to `CCn1cc(C(=O)O)c(=O)c2cc(F)c(N3CCN(C(=S)NC(=O)c4cccc(C)c4)CC3)cc21`, for which the IC50 was 34.7 µM.

As to `CC[C@H]1OC(=O)[C@H](C)[C@@H](O[C@H]2C[C@@](C)(OC)[C@@H](O)[C@H](C)O2)[C@H](C)[C@@H](O[C@@H]2O[C@H](C)C[C@H](N(C)C)[C@H]2O)[C@](C)(O)C[C@@H](C)CN(C)[C@H](C)[C@@H](O)[C@]1(C)O`, the IC50 was 2.37 µM.

In the case of `O=C(N/N=C\C=C\c1ccc([N+](=O)[O-])o1)c1cccs1`, the half-maximal inhibitory concentration (IC50) is 20.9 µM.

In the case of `O=C(/C=C/c1ccccc1Cl)c1ccccc(=O)c1O`, the IC50 is 23.8 µM.

Take `O=C(C[n+]1cc(-c2ccc(Cl)cc2)n2c1CCC2)Nc1nc(-c2ccc(F)cc2)cs1`: the half-inhibitory concentration (IC50) was 38.3 µM.

With `NC1=NC[C@H](Cc2ccc(O)cc2)N1CCCCC1CCCCC1`, the IC50 is 51 µM.

Turning to `O=C1C(SCCO)=C(SCCO)C(=O)c2ccccc21`, the IC50 is 68 µM.

Regarding `Cc1ccc(Nc2cc(C)nn2-c2nc(C)cc(=O)[nH]2)cc1`, the IC50 is 13.1 µM.

`O=C(C[n+]1cc(-c2ccc(Cl)cc2)n2c1CCC2)Nc1nc(-c2ccccc2)cs1`: the IC50 is 84 µM.

With `CCCCCCCCCCCCCCCC[n+]1cccc(C(=O)N(CC)CC)c1`, the IC50 is 20.1 µM.

On to `CC[n+]1c(/C=C/c2ccc(N(C)C)cc2)ccc2ccccc21`, for which the IC50 is 37.3 µM.

`Cc1ccc(-c2c[n+](CC(=O)Nc3nc(-c4ccc(F)cc4)cs3)c3n2CCC3)cc1`: the 50% inhibitory concentration (IC50) was 42.3 µM.

For the compound `OCc1ccc(O)c2ncccc12`, the IC50 is 123 µM.

For the compound `O=[N+]([O-])c1cc(F)c2cccnc2c1O`, the IC50 was 9.05 µM.

`NC1=NC[C@H](Cc2ccc(O)cc2)N1CCC12CC3CC(CC(C3)C1)C2`: the IC50 was 70.7 µM.

Consider `Oc1c(Cl)cc(Cl)c2cccnc12`, for which the half-maximal inhibitory concentration (IC50) is 10.5 µM.

In the case of `CCN1/C(=C/C=C/c2sc3ccccc3[n+]2CC)Sc2ccccc21`, the IC50 was 32.9 µM.

With `COc1c(N2CCN(C(=S)Nc3ccc(F)cc3)C(C)C2)c(F)cc2c(=O)c(C(=O)O)cn(C3CC3)c12` (configuration not stated), the IC50 is 15.7 µM.

Turning to `CCCCCCCCCCOC(=O)C[N+](C)(C)C/C=C(/C)Cl`, the IC50 was 44.9 µM.

For `CCCCCc1ccc(OCCOCCn2c[n+](C)c3ccccc32)c(CCCCC)c1`, the IC50 is 63.2 µM.

For `CCn1cc(C(=O)O)c(=O)c2cc(F)c(N3CCNCC3)cc21`, the IC50 is 0.88 µM.

Turning to `O=C(C[n+]1cc(-c2ccc(Cl)c(Cl)c2)n2c1CCC2)N1c2ccccc2Sc2ccccc21`, the IC50 was 49 µM.

As to `COc1ccc(C(C[N+](=O)[O-])n2nc(C)cc2C)cc1` (configuration not stated), the IC50 is 13.4 µM.

Turning to `O=C1C=C(N2CCOCC2)c2ccccc2C1=O`, the half-inhibitory concentration (IC50) is 55.5 µM.

As for `C[C@H]1c2cccc(O)c2C(O)=C2C(=O)C3(O)C(O)=C(C(N)=O)C(=O)[C@@H](N(C)C)[C@@H]3[C@@H](O)[C@@H]21` (some centres not stated), the IC50 is 3.63 µM.

In the case of `C#CCOCCOCCOCCNc1nc(N2CCN(C(=O)CCCCCCCCCCNC(=O)[C@H](CO)n3cc(CCCCCN)nn3)CC2)nc(N2CCN(C(=O)CCCCCCCCCCNC(=O)[C@H](CCCN=C(N)N)n3cc(C[C@@H](C)CC)nn3)CC2)n1`, the IC50 was 86.2 µM.

Take `Nc1nc2ccccc2n1Cc1ccc(Cl)c(Cl)c1`: the IC50 was 76.5 µM.

As for `CCn1cc(C(=O)O)c(=O)c2cc3c(cc21)OCO3`, the IC50 is 80.6 µM.

A word on the IC50: it is the concentration that inhibits the measured activity by half.

These data come from PubChem BioAssay AID2401 (Southern Research Specialized Biocontainment Screening …, 2010).
